The values that follow come from ChEMBL document CHEMBL1157931 (Bioorg Med Chem, 2010).

SMILES strings stand for the structures. Activity calls are given as the source filed them. The rule behind the calls is not given here.

The test system of series [1] is Caco-2. Put plainly: Cytotoxicity against human Caco-2 cells at 50 ug/ml. Format: cell-based.
For series [2], the target named is T1, 5-hydroxytryptamine receptor 1A (Homo sapiens) (UniProt P08908).
T1 sequence (whole entry): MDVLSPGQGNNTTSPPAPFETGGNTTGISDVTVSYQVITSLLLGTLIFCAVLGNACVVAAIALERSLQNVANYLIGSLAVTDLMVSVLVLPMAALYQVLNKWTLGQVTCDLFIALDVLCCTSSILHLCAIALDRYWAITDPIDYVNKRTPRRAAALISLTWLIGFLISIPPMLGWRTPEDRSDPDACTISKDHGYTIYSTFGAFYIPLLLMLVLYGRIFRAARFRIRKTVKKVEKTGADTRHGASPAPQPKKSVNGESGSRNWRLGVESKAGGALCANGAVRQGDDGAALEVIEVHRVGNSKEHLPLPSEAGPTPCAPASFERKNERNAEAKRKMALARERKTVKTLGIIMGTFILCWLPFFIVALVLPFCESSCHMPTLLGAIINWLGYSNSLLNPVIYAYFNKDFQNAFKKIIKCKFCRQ
Put plainly: Displacement of [3H]8-OH-DPAT from 5HT1A receptor expressed in HEK293 cells at 25 ug/ml after 2 hrs by liquid scintillation counting. Format: cell-based.

For series [3], the target named is T2, 5-hydroxytryptamine receptor 1A (Homo sapiens, UniProt P08908).
T2 sequence (P08908 whole entry): T1 sequence (whole entry)
Put plainly: Displacement of [3H]8-OH-DPAT from 5HT1A receptor expressed in HEK293 cells after 2 hrs by liquid scintillation counting. It is filed as cell-based. A general note: Loss of bound radioactivity is the signal in a displacement assay; it reports binding, not function.

In series [4] the target is T1, 5-hydroxytryptamine receptor 1A (Homo sapiens). Put plainly: Antagonist activity at 5HT1A receptor expressed in HEK293 cells assessed as inhibition of serotonin-induced [S35]GTPgammaS binding by scintillation counting. Format: functional, cell-based. (In general: Binding of GTPγS marks nucleotide exchange on a G protein.)
For series [5], the system named is Caco-2. Put plainly: Permeability in human Caco-2 cells assessed as passive diffusion after 3 hrs by HPLC. It is filed as ADME, cell-based. Particulars: caco-2, 3 h. Background: Caco-2 cells form a polarised layer with tight junctions and transporters.
The target of series [6] is T1, 5-hydroxytryptamine receptor 1A (Homo sapiens). In words: Antagonist activity at 5HT1A receptor expressed in HEK293 cells assessed as inhibition of 8-OH-DPAT-induced [S35]GTPgammaS binding by scintillation counting. Format: functional, cell-based.
In series [7] the target is ATP-dependent translocase ABCB1 (Homo sapiens, UniProt P08183). In words: Inhibition of human MDR1 expressed in MDCK cells assessed as fluorescence activity at 30 uM after 1.5 hrs by rhodamine 123 efflux test. Format: cell-based.
For series [8], the target named is T1, 5-hydroxytryptamine receptor 1A (Homo sapiens). Put plainly: Agonist activity at 5HT1A receptor expressed in HEK293 cells by [S35]GTPgammaS binding assay relative to 8-OH-DPAT. Format: functional, cell-based. Also on record: concentration or dose not given beside the values.
Series [9] shares this target. Put plainly: Agonist activity at 5HT1A receptor expressed in HEK293 cells at >20 uM by [S35]GTPgammaS binding assay relative to 8-OH-DPAT. It is filed as functional, cell-based.

Chain of ATP-dependent translocase ABCB1 (P08183 whole entry): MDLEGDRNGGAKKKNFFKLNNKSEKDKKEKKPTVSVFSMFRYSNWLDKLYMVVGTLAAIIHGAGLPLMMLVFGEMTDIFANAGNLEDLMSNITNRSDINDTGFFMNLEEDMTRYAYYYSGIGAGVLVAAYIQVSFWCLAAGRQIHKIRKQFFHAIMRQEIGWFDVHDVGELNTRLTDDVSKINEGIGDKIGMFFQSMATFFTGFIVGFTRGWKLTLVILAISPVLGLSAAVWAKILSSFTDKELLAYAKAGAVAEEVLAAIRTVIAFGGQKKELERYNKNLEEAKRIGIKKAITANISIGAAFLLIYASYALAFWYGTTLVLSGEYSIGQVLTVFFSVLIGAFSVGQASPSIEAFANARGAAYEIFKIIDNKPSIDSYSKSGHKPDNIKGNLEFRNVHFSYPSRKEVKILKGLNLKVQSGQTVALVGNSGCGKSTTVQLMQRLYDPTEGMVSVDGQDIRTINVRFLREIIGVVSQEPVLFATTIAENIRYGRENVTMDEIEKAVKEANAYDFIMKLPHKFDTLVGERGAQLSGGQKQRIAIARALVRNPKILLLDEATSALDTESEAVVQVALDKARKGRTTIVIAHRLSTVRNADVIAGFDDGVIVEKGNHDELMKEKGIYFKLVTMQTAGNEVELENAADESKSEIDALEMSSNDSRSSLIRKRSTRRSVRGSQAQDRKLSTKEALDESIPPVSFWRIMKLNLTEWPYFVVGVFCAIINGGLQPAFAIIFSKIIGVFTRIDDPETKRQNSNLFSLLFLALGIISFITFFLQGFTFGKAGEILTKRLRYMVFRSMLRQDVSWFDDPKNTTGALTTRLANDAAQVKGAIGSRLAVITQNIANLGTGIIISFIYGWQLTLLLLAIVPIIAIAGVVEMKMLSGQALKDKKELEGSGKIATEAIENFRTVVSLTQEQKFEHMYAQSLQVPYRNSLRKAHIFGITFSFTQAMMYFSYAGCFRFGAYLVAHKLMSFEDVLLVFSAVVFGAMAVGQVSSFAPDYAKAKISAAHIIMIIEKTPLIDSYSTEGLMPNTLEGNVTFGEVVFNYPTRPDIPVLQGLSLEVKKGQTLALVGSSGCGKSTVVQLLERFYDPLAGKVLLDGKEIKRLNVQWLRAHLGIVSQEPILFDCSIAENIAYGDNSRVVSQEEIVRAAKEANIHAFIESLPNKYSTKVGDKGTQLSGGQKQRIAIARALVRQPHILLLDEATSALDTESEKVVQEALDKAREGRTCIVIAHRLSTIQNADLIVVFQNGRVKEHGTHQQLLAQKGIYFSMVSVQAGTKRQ

Broadly, the Ki is the equilibrium dissociation constant of an inhibitor or competing ligand from its target. As to `CCCCC[C@H](O)CC(=O)CCc1ccc(O)c(OC)c1` [GINGEROL], the Activity entry with Caco-2 [1] was “Non-toxic”; in series [2] it was over 50%. Also, the Ki in series [3] is over 100 µM. The result in series [4] and in [6] was inactive. Also, the permeability with Caco-2 [5] was 10%. Also, the “inhibition (INH)” value in [7] was “Not Active”.
In series [2], `CCCCCCC/C(O)=C/C(=O)/C=C/c1ccc(O)c(OC)c1` returned an Activity of over 50%. In [3], this compound came in with a Ki of 6.54 µM. In addition, the outcome in series [4] and in series [6] was inactive. For the same compound, in [7], the “inhibition (INH)” value is given as “Not Active”.
For `CCCCCC(=O)/C=C(O)/C=C/c1ccc(O)c(OC)c1`, the Activity in series [2] is over 50%; in series [8], over 20%. Moreover, the inhibition constant Ki in [3] came to 6.53 µM. The result in series [4], in series [6] and in series [9] was inactive. Also, the “inhibition (INH)” value in series [7] was “Not Active”.
On to `NCCc1c[nH]c2ccc(O)cc12`, for which the Activity in series [8] is 100%.
Take `CC[C@]1(O)C[C@@H]2CN(CCc3c([nH]c4ccccc34)[C@@](C(=O)OC)(c3cc4c(cc3OC)N(C)[C@H]3[C@@](O)(C(=O)OC)[C@H](OC(C)=O)[C@]5(CC)C=CCN6CC[C@]43[C@@H]65)C2)C1` [VINBLASTINE]: the “inhibition (INH)” value in series [7] is recorded as “Active”.
In series [2], `CCCCCCC/C=C/C(=O)CCc1ccc(O)c(OC)c1` gave an Activity of over 50%. Besides, the affinity in series [3], expressed as Ki, was 13 µM. Also, the result in series [4] and in series [6] was inactive. Moreover, in series [7], the “inhibition (INH)” value is given as “Not Active”.
With `CCCCCCCCC[C@H](O)CC(=O)CCc1ccc(O)c(OC)c1`, the results for the Activity result (with Caco-2 [1]; in [2]; in [8]) were “Non-toxic”, over 50% and over 10%, respectively. The affinity in [3] corresponds to a Ki of 3.74 µM. Moreover, the outcome in [4] and in series [6] was inactive. Further, the permeability in the series on Caco-2 [5] was determined as 10%. In addition, in series [7], the “inhibition (INH)” value was “Not Active”.
On to `CCCCCCCCC/C(O)=C/C(=O)/C=C/c1ccc(O)c(OC)c1`, for which the Activity in series [2] was over 50%. The compound also had a Ki in [3] of 3.59 µM. Also, the result in series [4] and in series [6] was inactive. In addition, the “inhibition (INH)” value in series [7] is reported as “Not Active”.
With `CCCCCCCCC/C=C/C(=O)CCc1ccc(O)c(OC)c1`, the figures for the Activity entry (in the series on Caco-2 [1]; in series [2]; in series [8]) were “Non-toxic”, over 50% and over 20%, respectively. Further, in series [3], the inhibition constant Ki worked out at 5.84 µM. Further, the result in series [4], in series [6] and in series [9] was inactive. Besides, the permeability in the series with Caco-2 [5] came to 10%. Besides, the “inhibition (INH)” value in series [7] was “Not Active”.
Compound `CCCCCCCC(O)CCc1ccc(O)c(OC)c1` (configuration not stated) had a Ki in series [3] of 9.53 µM. The compound further had an Activity in [8] of over 10%.
Turning to `CCCCC/C=C/C(=O)CCc1ccc(O)c(OC)c1` [SHOGAOL], the Activity in series [2] was over 50%. Further, affinity in series [3] was put at a Ki of 18 µM. Besides, the result in series [4] and in series [6] was inactive. In series [7], the “inhibition (INH)” value is recorded as “Not Active”.
With `CCCCCCC[C@H](O)CC(=O)CCc1ccc(O)c(OC)c1`, the values for the Activity result (in the series with Caco-2 [1]; in series [2]) were “Non-toxic” and over 50%, respectively. Also, the Ki in series [3] came out at 11.7 µM. Besides, the outcome in series [4] and in series [6] was inactive. The permeability in the series on Caco-2 [5] is 10%. Besides, the “inhibition (INH)” value in [7] is listed as “Not Active”.
